Measurements from US20230242669A1, “ANTIBODY THAT BINDS ERBB-2 AND ERBB-3” (Merus N.V., priority 2014, published 2023).

tested on: HER2 overexpressing cells (SK-BR-3, BT-474, N87); experiment: Drug combinations with PB4188 in vitro (checkerboard, isobolograms); assay type: cell-based, human; settings: HER2 amplified cells, HRG
Experimental: Moreover, combination with chemotherapeutic drugs and cyclin inhibitors were tested. Combinations were tested on HER2 overexpressing cells growing in the presence of HRG in […]® (SK-BR-3 and BT-474) or in the presence of HRG stress concentrations (N87 and SK-BR-3 as described in proliferation assays). The inhibitory effect of drug combinations was tested by imaging or by measuring proliferation using Alamar Blue as described herein before. […] The extent of growth inhibition obtained with each combination was calculated. […] The inhibition values of the combination experiments were used by CHALICE™ Analyzer software to generate the isobolograms.

Compound	Drug combination with PB4188 (isobologram analysis)
CCOc1cc2ncc(C#N)c(Nc3ccc(OCc4ccccn4)c(Cl)c3)c2cc1NC(=O)/C=C/CN(C)C [neratinib]	synergistic
Cc1nc(NC(=O)N2CCC[C@H]2C(N)=O)sc1-c1ccnc(C(C)(C)C(F)(F)F)c1 [BYL719]	synergistic
O=C(CCCCCCC(=O)Nc1ccccc1)NO [vorinostat]	synergistic
CS(=O)(=O)CCNCc1ccc(-c2ccc3ncnc(Nc4ccc(OCc5cccc(F)c5)c(Cl)c4)c3c2)o1 [lapatinib]	synergistic
NC1(c2ccc(-c3nc4ccn5c(=O)[nH]nc5c4cc3-c3ccccc3)cc2)CCC1 [MK-2206]	synergistic
CC(=O)O[C@H]1C(=O)[C@@]2(C)[C@H]([C@H](OC(=O)c3ccccc3)[C@]3(O)C[C@H](OC(=O)[C@H](O)[C@@H](NC(=O)c4ccccc4)c4ccccc4)C(C)=C1C3(C)C)[C@]1(OC(C)=O)CO[C@@H]1C[C@@H]2O [paclitaxel]	synergistic
CO[C@H]1C[C@@H]2CC[C@@H](C)[C@@](O)(O2)C(=O)C(=O)N2CCCC[C@H]2C(=O)O[C@H]([C@H](C)C[C@@H]2CC[C@@H](OCCO)[C@H](OC)C2)CC(=O)[C@H](C)/C=C(\C)[C@@H](O)[C@@H](OC)C(=O)[C@H](C)C[C@H](C)/C=C/C=C/C=C/1C [everolimus]	synergistic
